Data from patent US20100204148A1, “(D-LEU7 ) -HISTRELIN AS A THERAPEUTIC AGENT” (priority 2007, published 2010).

Tests used:
in vitro [1] = conditions: human, CEM-SS cells
in vitro [2] = conditions: human
Human A549 cells [3] = experiment: Propidium iodide cell cycle assay; type: cell-based; conditions: 10 micrograms per ml, 24 hours, FACS
Description: The cell cycle consists of four distinct phases: […]

RAW 264.7 cells = experiment: Phagocytosis assay (Fluorescein-labeled Escherichia coli); type: cell-based, mouse; conditions: 10 micrograms per ml, flow cytometry
[4] = system: Human Peripheral Blood Mononuclear Cells (PBMC); experiment: B cell proliferation assay (SAC plus IL-2, 3H-thymidine); conditions: 10 micrograms per ml
[5] = system: macrophages from human PBMC; experiment: TNF alpha production assay (LPS-stimulated macrophages, ELISA); type: cell-based; conditions: 10 micrograms per ml, lipopolysaccharide 200 ng/ml, overnight
Description: Not stimulated macrophages served as negative background control.

[6] = system: hepatitis B virus (HBV) ayw strain; experiment: HBV experimental assay system (secreted HBV DNA, TaqMan PCR); conditions: HepG2-2.2.15; peptide 10 micrograms per ml; six days; HBV DNA in supernatant
in vitro [7] = conditions: human, MRC-5 cells (human embryonal lung fibroblasts)
Description: The following day, peptide were added and tested in duplicates.

HCMV strain AD169 = experiment: HCMV plaque reduction assay in MRC-5 cells; type: cell-based; conditions: HCMV in MRC-5 cells; peptide 10 micrograms per ml; 7-10 days
Description: Ganciclovir was used as positive control.

[8] = system: Primary Human endothelial cells (HUVEC); experiment: Endothelial cell migration assay; type: cell-based; conditions: 10 micrograms per ml, 22 hours
Human A549 cells [9] = experiment: Apoptosis induction assay (Annexin-5); type: cell-based; conditions: 10 micrograms per ml, 24 hours
Description: Human A549 cells (carcinomic human alveolar basal epithelial cells) were utilized in the experiments employing the Annexin-5 apoptosis assay.

HUVEC = experiment: Endothelial tube formation assay; type: cell-based, human; conditions: 10 micrograms per ml, 20 hours
Description: Positive control was vehicle only.

Pseudomonas aeruginosa = type: cell-based; conditions: 10 micrograms per ml
Streptococcus pneumoniae = type: cell-based; conditions: 10 micrograms per ml
MRSA = conditions: 10 micrograms per ml
[10] = system: spleen cells of Ovalbumin-immunized Balb/c mice; experiment: Th1/Th2 cytokine profiling assay; type: cell-based, mouse; conditions: 10 micrograms per ml; Ovalbumin restimulation; 72 hours
[11] = system: Human Peripheral Blood Mononuclear Cells (PBMC); experiment: T cell proliferation assay (PHA, 3H-thymidine); conditions: 10 micrograms per ml
Human A549 cells [12] = experiment: Apoptosis prevention assay (C2 ceramide, Annexin-5); type: cell-based; conditions: 30 min pretreatment with 10 micrograms per ml
HIV-1IIIB = experiment: HIV-1 antiviral assay (CPE reduction) in CEM-SS cells; type: cell-based; conditions: peptide 10 micrograms per ml; 6 days post-infection; MTS

## CCNC(=O)[C@@H]1CCCN1C(=O)[C@H](CCCNC(=N)N)NC(=O)[C@@H](CC(C)C)NC(=O)[C@@H](Cc1cn(Cc2ccccc2)cn1)NC(=O)[C@H](Cc1ccc(O)cc1)NC(=O)[C@H](CO)NC(=O)[C@H](Cc1c[nH]c2ccccc12)NC(=O)[C@H](Cc1c[nH]cn1)NC(=O)[C@@H]1CCC(=O)N1 [D-Leu^7-Histrelin, Pyr-His-Trp-Ser-Tyr-D-His(Bzl)-D-Leu-Arg-Pro-NHEt]
In vitro [1]
  viability at 10 micrograms per ml: 100%
In vitro [2]
  viability at 144 h, 10 micrograms per ml: 91.4%
Human A549 cells [3]
  Cell cycle analysis G0/G1: 58.9
  Cell cycle analysis G2/M: 9.7
  Cell cycle analysis S: 31.4
RAW 264.7 cells
  % of control phagocytosis: 102.9%
[4]
  % of SAC/IL2 induced control: 92.6%
[5]
  % of LPS induction: 111.5%
[6]
  % inhibition of HBV replication in HEP G2 cells: 61.6%
In vitro [7]
  viability at 144 h: 100%
HCMV strain AD169
  % plaque reduction: 2.5%
[8]
  % inhibition of migration: 8%
Human A549 cells [9]
  % of induction: 4.3%
HUVEC
  % inhibition of tube formation: 4%
Pseudomonas aeruginosa
  % inhibition: 0.0%
Streptococcus pneumoniae
  % inhibition: 100.0%
MRSA
  % inhibition: 0.0%
[10]
  IFNγ spleen cells; TH1 response (% of control): 69.2 % of control
  IL-2 spleen cells (% of control): 155.8 % of control
  IL-4 spleen cells; TH2 response (% of control): 235.7 % of control
  IL-5 spleen cells; TH2 response (% of control): 93.0 % of control
  TNF-a spleen cells; TH1 response (% of control): 116.4 % of control
[11]
  % of PHA induced control: 96.2%
Human A549 cells [12]
  % prevention of ceramide induced apoptosis: 0.0%
HIV-1IIIB
  % CPE reduction in HIV-1 infected CEM-SS cells: 0.0%
